Source: patent publication US20020182655A1, “Method for identifying ligands for G protein-coupled receptors” (priority 2001, published 2002)

Experiments:
hGPR 3 = hGPR 3 (Homo sapiens, UniProt P46089); assay: Ca2+ FLIPR assay in HEK293 cells transiently transfected with hGPR 3; assay type: cell-based
Description: (§1) Transient transfections were carried out by incubating 5×10^5 HEK293 cells or 2×10^5 CHO-K1 cells in 6-well plates at 37° C. for 24 hours. The cells were then transfected with 1 to 2 μg of a vector, pcDNA 3.1, into which a GPR 3 gene was inserted by Hind III and Xba I sites, under the control of pcDNA 3.1. It is also expected that GPR 3, 6, or 12 may be cloned under control of the eukaryotic CMV promoter or of a control plasmid without corresponding cloned insert. The HEK293 cells were transfected with the aid of FuGene 6 transfection reagent (commercially available, for example from Roche Diagnostics) and the CHO cells were transfected with the aid of Lipofectamine reagent (commercially available, for example from GIBCO-BRL), in each case according to the manufacturer's instructions.
(§2) HEK293 cells were transferred to 96-well microtiter plates 24 hours after transient transfection. The cell density was 80,000 cells per well. The microtiter plates were coated with poly-D-lysine. […] The compounds to be analyzed, i.e., S1P, DHS1P, suramin, and compounds from the lipid library, were present as 2 mM stock solutions in DMSO (dimethyl sulfoxide). […]
(§3) The FLIPR was programmed such that 50 μl of the triple-concentrated suramin stock solution were added to the cells, leading to a final suramin concentration of 300 μM. Fluorescence was measured in 3 second intervals for the first 3 minutes and in 10 second intervals for the last 2 minutes. Ca^2+ signals of ligands were determined similarly.
(§4) The fluorescence data of the 18 to 36 second time interval were used to determine agonist activity.
(§5) Regarding the FLIPR assay, HEK293 cells were transferred to 96-well microtiter plates 24 hours after transient transfection. […] Compounds to be analyzed, e.g., S1P and DHS1 P, were added at this stage. Fluorescence was measured by means of a fluorometric imaging plate reader in 3 second intervals for the first 3 minutes and in 10 second intervals for the last 2 minutes. The fluorescence data of the 18 to 36 second time interval were used to determine agonist activity. […]

hGPR 6 = hGPR 6 (Homo sapiens, UniProt P46095); assay: Ca2+ FLIPR assay in HEK293 cells transiently transfected with hGPR 6; assay type: cell-based
Description: as §1, §2, §3, §4, §5

hGPR 12 = molecular target: T1, hGPR 12 (Homo sapiens, UniProt P47775); assay: Ca2+ FLIPR assay in HEK293 cells transiently transfected with hGPR 12; assay type: cell-based
T1 sequence (P47775 1-334): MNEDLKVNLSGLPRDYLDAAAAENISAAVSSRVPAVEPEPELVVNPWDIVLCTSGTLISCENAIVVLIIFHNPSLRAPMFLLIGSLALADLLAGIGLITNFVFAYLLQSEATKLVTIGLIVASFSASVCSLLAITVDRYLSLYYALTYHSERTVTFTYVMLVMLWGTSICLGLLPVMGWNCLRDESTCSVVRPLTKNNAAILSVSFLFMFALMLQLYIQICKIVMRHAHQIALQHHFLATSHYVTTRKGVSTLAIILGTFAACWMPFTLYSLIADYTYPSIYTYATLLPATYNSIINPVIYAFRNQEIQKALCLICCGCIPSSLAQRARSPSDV
Description: as §1, §2, §3, §4, §5

HEK293 cells = assay: Ca2+ release in HEK293 cells; assay type: cell-based, human; settings: for sensitivity of induced Ca2+ release to pertussis toxin: signal runs via Gαi-type G proteins
Description: HEK293 cells were transferred to 96-well microtiter plates 24 hours after transient transfection. The cell density was 80,000 cells per well. The microtiter plates were coated with poly-D-lysine. The cells were kept in medium containing 1% (v/v) FCS (fetal calf serum) for 18 to 24 hours. After trypsinization, the cells were suspended in DMEM (Dulbecco's modified Eagle's medium) that also contained 25 mM HEPES (N-2-hydroxyethylpiperazine-N′-2-ethanesulfonic acid) pH 7.0, 1% (v/v) FCS, […] and 4 μM dye Fluo4 (fluorescent calcium indicator from Molecular Dynamics), and then incubated at 37° C. with 5% (v/v) CO2 for 1 hour. The cells were then washed 3 times with PBS (phosphate-buffered saline) containing 1 mM MgCl2, 1 mM EDTA and 0.4 mg/ml FAF-BSA (fatty acid-free bovine serum albumin). After the last washing step, the volume was 100 ,μl per […]. The compounds to be analyzed, i.e., S1P, DHS1P, suramin, and compounds from the lipid library, were present as 2 mM stock solutions in DMSO (dimethyl sulfoxide). These stock solutions were diluted 1:500 with the PBS solution containing 1 mM MgCl2, 1 mM EDTA and 0.4 mg/ml FAF-BSA. Lipids were present in the form of triple-concentrated 900 μM solutions prior to the assay. Suramin (Sigma) was prepared in the form of a triple-concentrated 900 μM solution in PBS containing 1 mM MgCl2, 1 EDTA, and 0.4 mg/ml FAF-BSA.
as §3, §4
Regarding the FLIPR assay, HEK293 cells were transferred to 96-well microtiter plates 24 hours after transient transfection. The cell density was 80,000 cells per well. The microtiter plates were coated with poly-D-lysine. The cells were kept in medium containing 1% (v/v) FCS (fetal calf serum) for 18 to 24 hours. […] Compounds to be analyzed, e.g., S1P and DHS1 P, were added at this stage. Fluorescence was measured by means of a fluorometric imaging plate reader in 3 second intervals for the first 3 minutes and in 10 second intervals for the last 2 minutes. The fluorescence data of the 18 to 36 second time interval were used to determine agonist activity. The reader itself equalizes internally the zero values.

Chain of hGPR 3 (P46089 whole entry): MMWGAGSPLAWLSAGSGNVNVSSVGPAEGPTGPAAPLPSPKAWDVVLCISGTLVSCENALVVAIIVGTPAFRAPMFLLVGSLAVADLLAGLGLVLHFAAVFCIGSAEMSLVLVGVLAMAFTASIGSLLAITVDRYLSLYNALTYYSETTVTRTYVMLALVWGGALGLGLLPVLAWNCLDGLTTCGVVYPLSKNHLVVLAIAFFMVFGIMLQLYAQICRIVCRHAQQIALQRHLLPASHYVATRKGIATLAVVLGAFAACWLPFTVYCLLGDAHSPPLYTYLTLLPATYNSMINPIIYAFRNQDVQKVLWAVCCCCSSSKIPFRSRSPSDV
Chain of hGPR 6 (P46095 whole entry): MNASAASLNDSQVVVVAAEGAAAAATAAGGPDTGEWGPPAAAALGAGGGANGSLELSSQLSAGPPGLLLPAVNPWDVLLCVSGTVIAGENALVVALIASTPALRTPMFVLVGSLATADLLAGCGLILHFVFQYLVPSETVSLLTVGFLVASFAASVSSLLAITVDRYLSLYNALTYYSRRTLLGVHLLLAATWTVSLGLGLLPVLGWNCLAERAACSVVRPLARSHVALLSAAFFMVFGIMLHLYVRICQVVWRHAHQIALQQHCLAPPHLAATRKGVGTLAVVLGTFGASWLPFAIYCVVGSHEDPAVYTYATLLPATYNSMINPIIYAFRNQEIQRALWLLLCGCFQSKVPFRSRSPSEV

| Structure (SMILES) | identification as ligand (agonist activity, Ca2+ signal) (hGPR 3) | identification as ligand (agonist activity, Ca2+ signal) (hGPR 6) | identification as ligand (agonist activity, Ca2+ signal) (hGPR 12) | Ca2+ release (HEK293 cells) | sensitivity of induced Ca2+ release to pertussis toxin (HEK293 cells) | EC50 (hGPR 3; Ca2+ FLIPR) | EC50 (hGPR 6; Ca2+ FLIPR) | EC50 (hGPR 12; Ca2+ FLIPR) |
| --- | --- | --- | --- | --- | --- | --- | --- | --- |
| CCCCCCCCCCCCCCC[C@@H](O)[C@@H](N)COP(=O)(O)O [DHS1P, dihydrosphingosine 1-phosphate] | physiological ligands | physiological ligands | physiological ligands | cause Ca^2+release | pertussis toxin-sensitive | – | – | – |
| CCCCCCCCCCCCC/C=C/[C@@H](O)[C@@H](N)COP(=O)(O)O [S1P, sphingosine 1-phosphate] | physiological ligands | physiological ligands | physiological ligands | cause Ca^2+release | pertussis toxin-sensitive | < 0.1 µM | < 0.1 µM | < 0.1 µM |
